US20250354930A1, “IONIC LIQUID ENCAPSULATION OF NIR DYES FOR THE IMPROVEMENT OF BLOODSTAIN DETECTION” (University of Mississippi, priority 2024, published 2025)
≈ marks a conversion by molar mass, not a printed value. Where “and” joins values, the source holds several entries; their conditions need not be identical. Equal entries are not always repeated. Where two headings read alike, the source gives them in different places.

Assays:
[1] = Conductivity measurements of 160 mM solutions; type: physicochemical
Procedure: Conductivity was measured using a Thermo Scientific Orion Star […] conductivity meter using a DuraProbe 4-electrode conductivity cell. […] The clean probe was introduced into each solution to record the conductivity. The conductivity was measured in triplicate for each of the solutions.

[2] = biological target: T1, HSA (Homo sapiens, UniProt P02768); experiment: Dynamic light scattering size and zeta potential of HSA systems; conditions: 0.1 mg/mL HSA in 10 μM SO3SQ, no IL
T1 sequence (P02768 25-609): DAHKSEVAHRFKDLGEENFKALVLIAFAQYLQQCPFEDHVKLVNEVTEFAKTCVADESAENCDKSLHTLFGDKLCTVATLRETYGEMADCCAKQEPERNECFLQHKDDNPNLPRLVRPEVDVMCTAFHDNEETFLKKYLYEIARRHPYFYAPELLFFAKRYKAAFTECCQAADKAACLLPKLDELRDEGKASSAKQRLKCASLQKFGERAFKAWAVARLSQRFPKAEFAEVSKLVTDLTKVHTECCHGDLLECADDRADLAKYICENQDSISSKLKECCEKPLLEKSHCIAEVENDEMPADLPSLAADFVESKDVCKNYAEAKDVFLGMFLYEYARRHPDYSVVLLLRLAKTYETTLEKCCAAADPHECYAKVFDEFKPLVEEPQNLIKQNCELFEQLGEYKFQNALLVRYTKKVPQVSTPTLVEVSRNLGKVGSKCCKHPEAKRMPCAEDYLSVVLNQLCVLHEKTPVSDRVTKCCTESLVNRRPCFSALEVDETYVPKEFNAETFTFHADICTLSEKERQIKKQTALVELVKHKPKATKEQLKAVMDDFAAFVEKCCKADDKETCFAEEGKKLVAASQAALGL

[3] = biological target: T2, human serum albumin (HSA) (Homo sapiens, UniProt P02768); conditions: dissolved in human serum albumin (HSA); cited from earlier work
T2 sequence (P02768 25-609): as above

[4] = biological target: T1, HSA; experiment: Isothermal titration calorimetry of HSA titrated into SO3SQ; type: binding
Procedure: ITC measurements were carried out in triplicate on a Malvern VP-ITC. Uncertainties are provided as the standard error of the mean. The solvent was either buffer alone (25 mM sodium phosphate, pH 6.5) or buffer plus 40 mM CG 1:1. HSA was dialyzed into the appropriate buffer, and solid SO3SQ was dissolved in dialysis buffer to ensure a close buffer match. This was necessary in order to prevent strong heats of dilution that are often observed when ILs are titrated in separately. Both HSA and dye solutions were degassed for 10 min before experiments. A typical experiment contained 60 μM HSA in the syringe and 60 μM dye in the calorimetry cell. A total of 28 injections were typically used, each 10 μL in volume, and 10 min of equilibration time was allowed to occur between injections. Measurements were performed at 25° C. Because injection heats and corresponding signal-to-noise ratios were small, manual baseline fitting was performed using Origin software. Since K and N cannot be determined using this ratio of HSA and dye in the presence of CG 1:1, only the enthalpy is accessible from these measurements. The enthalpy for each ITC experiment was reported as the average enthalpy of the first 10 useable injections, which were all similar. […] For reverse titrations, performed without CG 1:1, N, K, and ΔH were fit using CHASM, and the heat of the final injection was used as the baseline. The number of binding sites per HSA molecule was reported as the inverse value of N from fitting, as is typical for reverse titrations. Finally, titrations were also performed where SO3SQ or HSA was systematically removed, one at a time, in the presence and absence of CG 1:1, to determine whether dilution heats were contributing to the measured enthalpy. In all cases, dilution heats were small, less than 10% of the observed enthalpy, and no further corrections were made.

[5] = biological target: T2, human serum albumin (HSA); conditions: for free energy of binding: calculated from KA
[6] = Aqueous solubility; type: physicochemical; conditions: water
[7] = biological target: T1, HSA; experiment: Circular dichroism spectroscopy of HSA; conditions: 1 mg/mL HSA; 10 μM SO3SQ, with or without 160 mM CG (1:1)
Procedure: CD experiments to determine the impact the 1:1 SO3SQ and CG 1:1 may have on HSA and DNA were performed on a Jasco J-1500 CD spectrophotometer. The measurements were performed using a Jasco Spectrosil 1 mm path length cuvette. Samples containing HSA were prepared at 1 mg/mL in either water, 10 μM SO3SQ in water, and 10 μM SO3SQ in water with 1:1 160 mM CG 1:1 added. The protein scans were conducted at a 200-260 nm range. For measurements involving DNA, bacterial plasmid DNA was used, and the DNA concentration was maintained at 12 nM across all samples due to high instrument sensitivity. CG 1:1 was added at 2.5% v/v to achieve a 160 mM concentration. A solution of 9.14 μM SO3SQ in water was made and added to DNA solutions in 5 μL increments. These scans were completed over a 200-350 nm range.

[8] = in the presence of fetal bovine serum; cited from earlier work
[9] = 10 μM dye; IL scanned 0-240 mM or additive at 160 mM
[10] = absence of CG 1:1, reverse titration, 25° C.

In the case of `[Cl-].[Na+]` [NaCl], the “Conductivity, Mean ± SD” value [1] is reported as 20.4 ± 0.2 μS/cm, the “Conductivity, Replicate 1” value [1] is reported as 20.2 μS/cm and the “Conductivity, Replicate 2” value [1] is reported as 20.6 μS/cm. The “Conductivity, Replicate 3” value [1] was 20.3 μS/cm, the average conductance [1] was 20.4±0.2 mS/cm and the “conductance relative to that of the IL” value [1] was 100 ×.

For `CC1=C(c2ccc(OCCCCS(=O)(=O)O)cc2)/C(=C2/C(=O)C(c3c(-c4ccc(OCCCCS(=O)(=O)[O-])cc4)c(C)c4ccccn34)C2O)[n+]2ccccc21` (stereo not drawn) [SO3SQ], the “average charge (zeta potential)” value [2] is given as −20±5 mV, the average size [2] is given as 150±20 nm and the “fluorescence quantum yield ΦF” value [3] is given as 61.1%. For the same compound, the K [4, 10] was “(1.8±0.4)×10^6”, the “N (number of binding sites per HSA molecule)” value [4, 10] was 11.5±0.4 and the “heat of binding, ΔH” value [4, 10] was -18 ± 2 kcal/mol. The “ΔG°” value [4, 10] was -8.50 ± 0.13 kcal/mol, the “enthalpy of binding between HSA and SO3SQ, ΔH” value ([4]; buffer containing 40 mM ionic liquid, 25 mM sodium phosphate pH 6.5, 25° C.) was 6.1 ± 0.2 kcal/mol and the “apparent association constant KA,app of HSA in SO3SQ” value ([5]; 10 μM SO3SQ, no IL) was 3.2×10^5 and 2.0×10^5. The “free energy of binding” value ([5]; system containing just the dye) was -7.4 kcal/mol, the “free energy of binding” value ([5]; system containing the dye and IL) was -8.0 kcal/mol and the solubility [6] was roughly 60 µM (≈ 47.9 µg/mL). For the same compound, the “effect on the secondary structure of HSA” value [7] was “increase in the alpha helical content” and the “fluorescence quantum yield ΦF” value [8] was 58%.

For `O=C(O)CO` [glycolic acid], the “effect on the dye's fluorescence in the presence of blood” value [9] was “little impact”.
